Measurements as given in ChEMBL document CHEMBL1126546, “Vitamin D analogues: new regulators of cancer cell growth and differentiation” (Bioorg Med Chem Lett, 1993).

How the values were obtained:
[1] = test system: U-937; assay: Concentration required for the compound to induce U 937 cells along the monocyte-macrophage pathway; type: functional, cell-based; conditions: Homo sapiens
[2] = test system: U-937; assay: Compound was tested in vitro to inhibit proliferation of U 937 human histiolytic lymphoma cells; type: functional, cell-based
[3] = test system: Rattus norvegicus; assay: Compound was tested for in vivo antitumor effect on rats with mammary tumors induced by nitrosomethylurea at a dose of 2.5 ug/kg/day; type: functional

IC50 [2] [nM] | Compound | Concentration [1] [nM] | inhibition in vivo at 0.0025 mg/kg/day [3] [%]
– | C=C1/C(=C\C=C2/CCC[C@]3(C)[C@@H]([C@H](C)CCCC(C)(C)O)CC[C@@H]23)C[C@@H](O)C[C@@H]1O | 2 | –
0.25 | C=C1/C(=C\C=C2/CCC[C@]3(C)[C@@H]([C@H](C)/C=C/C=C/C(O)(CC)CC)CC[C@@H]23)C[C@@H](O)C[C@@H]1O [SEOCALCITOL] | 0.03 | 80
